Results taken from patent US6194173A, “Binding proteins for phosphoinositides, GRP1 or general receptor 1 for phophoinositide” (priority 1999, dated 2001).

What was measured:
[1] = target: T1, PH domain of GRP (Mus musculus, UniProt O08967); test: Binding specificity of the GRP PH domain for 32P-labeled phosphoinositides (GST-PH on nitrocellulose); parameters: species or system murine; conditions: GST-PH, 25,000 cpm lipid; relative to GST
T1 sequence (O08967 239-399): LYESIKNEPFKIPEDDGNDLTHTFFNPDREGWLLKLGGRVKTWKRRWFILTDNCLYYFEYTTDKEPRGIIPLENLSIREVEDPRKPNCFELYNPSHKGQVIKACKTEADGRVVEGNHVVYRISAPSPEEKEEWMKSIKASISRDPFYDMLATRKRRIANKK
Experimental: The 3'-phosphatidylinositol probes labeled at the 3' position were generated using GST-p110 PI3-kinase purified from recombinant bacculovirus infected Sf 9 cells, using either purified phosphatidylinositol phosphates or crude brain lipid. Briefly, 20 mg phospholipid in chloroform was dried under N2 and resuspended in […] of buffer containing Tris-HCl pH 7.4, EDTA 1 mM and incubated in […] phopsphorylation media containing 20 mM Tris-HCl pH 7.4, 100 mM NaCl, 10 mM MgCl2, 0.5 mM EGTA. 0.2 mM adenosine, GST-p110 and 5-10 mCi [g-^32 P]ATP (5 Ci/umol). The reaction was carried out for 2 h at room temperature, quenched by addition of 0.2 ml of 1M HCl, followed by 0.5 ml of chloroform:methanol (1:1). The organic phase containing phospholipids was washed 4 times with 0.4 ml of methanol:HCl (1: 1) and stored at -70° C. until use. Just before use, the lipid was dried under a stream of nitrogen with phosphatidyl serine corresponding to a final concentration of 20 mg/ml. The identities of the PI3-P, PI3,4-P2 and PI3,4,5-P3 were confirmed by TLC and HPLC analysis.
To generate the GST fusion proteins, PCR reactions using the primers: […] (SEQ ID NO:9) and […] (SEQ ID NO:10) for the GST-N construct, […] (SEQ ID NO:11) and […] (SEQ ID NO:12) for the GST-Sec7 construct, […] (SEQ ID NO:13) and […] (SEQ ID NO:14) for the GSTPH construct, and […] […] The filters were washed four times with 1 mL assay buffer and counted in a scintillation counter.
In order to determine whether PI(3,4,5)P3 binding could be localized to specific sequences within the GRP structure, GST fusion proteins containing either residues 239 to 399 (PH domain), residues 52 to 260 (Sec7 domain), or residues 5 to 71, full length GRP residues 5-399 were expressed in bacteria and purified on glutathione-conjugated beads. […] 150 pmol of the proteins were spotted on nitrocellulose filters, incubated with [^32 P]PI(3,4,5)P3 and the amount of bound lipid was determined as described. […] Nitrocellulose filters with GST-PH were incubated with 25,000 cpm of each of the phospholipids and the amount of bound lipid determined as described above. […]

[2] = target: T2, proteins encoded by both brain and adipocyte cDNA clones (GRP) (Mus musculus, UniProt O08967); test: Binding of 32P-labeled phosphoinositides to protein of isolated cDNA clones on nitrocellulose filters (library screen); conditions: library screening conditions
T2 construct: lack four residues
T2 sequence (O08967 5-399): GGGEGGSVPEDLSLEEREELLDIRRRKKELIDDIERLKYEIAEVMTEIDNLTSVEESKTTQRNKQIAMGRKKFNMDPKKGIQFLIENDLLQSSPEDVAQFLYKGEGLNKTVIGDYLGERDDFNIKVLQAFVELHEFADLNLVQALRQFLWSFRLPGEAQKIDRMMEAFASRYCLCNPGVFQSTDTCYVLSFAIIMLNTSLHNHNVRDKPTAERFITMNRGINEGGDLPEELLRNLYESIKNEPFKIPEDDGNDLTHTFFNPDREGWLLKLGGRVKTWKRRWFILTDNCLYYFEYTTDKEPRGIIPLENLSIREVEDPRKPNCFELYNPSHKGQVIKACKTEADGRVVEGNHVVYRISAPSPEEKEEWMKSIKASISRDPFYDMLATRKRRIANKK

Phosphatidylinositol (3,4,5)-Trisphosphate [PtdIns(3,4,5)P3]
binding of labeled phosphoinositide to the GRP PH domain [1]: specifically | binding of labeled phosphoinositide to the cDNA clone protein [2]: bound
